Data set [1] deals with T1, Adenosine receptor A2b (Homo sapiens, UniProt P29275).
T1 sequence (P29275 whole entry): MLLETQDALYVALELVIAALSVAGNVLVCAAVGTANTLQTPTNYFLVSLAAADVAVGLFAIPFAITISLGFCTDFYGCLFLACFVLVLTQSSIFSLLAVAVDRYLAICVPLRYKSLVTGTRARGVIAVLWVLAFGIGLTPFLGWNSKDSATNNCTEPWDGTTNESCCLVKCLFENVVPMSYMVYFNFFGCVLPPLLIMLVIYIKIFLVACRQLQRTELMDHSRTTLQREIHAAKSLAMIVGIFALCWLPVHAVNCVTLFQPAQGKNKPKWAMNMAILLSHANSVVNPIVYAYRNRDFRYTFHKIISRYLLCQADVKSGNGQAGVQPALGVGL
The data set can be described thus: Displacement of [3H]DPCPX from human A2B adenosine receptor expressed in HEK293 cell membranes after 60 mins by radioligand displacement assay.

Data set [2] concerns the target T1, Adenosine receptor A2b. The data set can be described thus: Antagonist activity at recombinant human A2B adenosine receptor expressed in CHO cells after 3 to 4 hrs by luciferase reporter gene assay. Type of data set: cell-based.
The nature of data set [3]: Intrinsic clearance in rat hepatocytes by MS/MS analysis. Type of data set: ADME, cell-based, Hepatocyte.
The next data set concerns the target T2, Cytochrome P450 1A2 (Homo sapiens, UniProt P05177).
T2 sequence (P05177 whole entry): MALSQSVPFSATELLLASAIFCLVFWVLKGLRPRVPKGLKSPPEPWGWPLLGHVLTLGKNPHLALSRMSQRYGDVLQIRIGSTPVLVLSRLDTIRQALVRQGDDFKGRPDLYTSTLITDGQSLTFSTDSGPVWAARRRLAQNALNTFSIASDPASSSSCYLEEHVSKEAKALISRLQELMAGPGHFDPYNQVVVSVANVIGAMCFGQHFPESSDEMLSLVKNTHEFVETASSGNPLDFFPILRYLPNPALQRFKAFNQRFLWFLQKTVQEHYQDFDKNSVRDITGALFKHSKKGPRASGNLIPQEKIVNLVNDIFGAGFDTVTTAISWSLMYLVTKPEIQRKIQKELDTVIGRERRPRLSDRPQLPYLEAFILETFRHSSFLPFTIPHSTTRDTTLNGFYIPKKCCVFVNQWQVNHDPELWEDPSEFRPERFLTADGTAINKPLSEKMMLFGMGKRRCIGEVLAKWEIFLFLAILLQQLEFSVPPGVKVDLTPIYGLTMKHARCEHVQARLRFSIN
The data set can be described thus: Inhibition of CYP1A2 in human liver microsomes using phenacetin as substrate after 15 mins in presence of NADPH by LC-MS/MS analysis. Type of data set: ADME.

In the next data set the target is T3, Cytochrome P450 2C8 (Homo sapiens, UniProt P10632).
T3 sequence (P10632 whole entry): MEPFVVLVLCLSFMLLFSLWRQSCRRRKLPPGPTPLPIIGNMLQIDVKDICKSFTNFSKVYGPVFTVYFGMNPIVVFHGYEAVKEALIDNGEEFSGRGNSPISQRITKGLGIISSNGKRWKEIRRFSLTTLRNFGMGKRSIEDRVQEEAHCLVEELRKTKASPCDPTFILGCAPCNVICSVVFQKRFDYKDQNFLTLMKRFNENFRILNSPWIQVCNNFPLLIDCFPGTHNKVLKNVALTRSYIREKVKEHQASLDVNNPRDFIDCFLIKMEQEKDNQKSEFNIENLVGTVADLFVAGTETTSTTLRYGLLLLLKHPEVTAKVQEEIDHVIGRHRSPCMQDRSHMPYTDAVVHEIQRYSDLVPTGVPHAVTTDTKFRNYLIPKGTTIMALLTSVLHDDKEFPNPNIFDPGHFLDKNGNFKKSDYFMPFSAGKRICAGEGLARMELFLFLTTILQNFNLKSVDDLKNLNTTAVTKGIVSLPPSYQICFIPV
The data set can be described thus: Inhibition of CYP2C8 in human liver microsomes using amodiaquine as substrate after 15 mins in presence of NADPH by LC-MS/MS analysis. Type of data set: ADME.

Another data set addresses Cytochrome P450 2C9 (Homo sapiens, UniProt P11712). The data set can be described thus: Inhibition of CYP2C9 in human liver microsomes using diclofenac as substrate after 15 mins in presence of NADPH by LC-MS/MS analysis. Type of data set: ADME.
In a further data set the target is Cytochrome P450 2D6 (Homo sapiens, UniProt P10635). The data set can be described thus: Inhibition of CYP2D6 in human liver microsomes using dextromethorphan as substrate after 15 mins in presence of NADPH by LC-MS/MS analysis. Type of data set: ADME.
Cytochrome P450 2D6, sequence (P10635 whole entry): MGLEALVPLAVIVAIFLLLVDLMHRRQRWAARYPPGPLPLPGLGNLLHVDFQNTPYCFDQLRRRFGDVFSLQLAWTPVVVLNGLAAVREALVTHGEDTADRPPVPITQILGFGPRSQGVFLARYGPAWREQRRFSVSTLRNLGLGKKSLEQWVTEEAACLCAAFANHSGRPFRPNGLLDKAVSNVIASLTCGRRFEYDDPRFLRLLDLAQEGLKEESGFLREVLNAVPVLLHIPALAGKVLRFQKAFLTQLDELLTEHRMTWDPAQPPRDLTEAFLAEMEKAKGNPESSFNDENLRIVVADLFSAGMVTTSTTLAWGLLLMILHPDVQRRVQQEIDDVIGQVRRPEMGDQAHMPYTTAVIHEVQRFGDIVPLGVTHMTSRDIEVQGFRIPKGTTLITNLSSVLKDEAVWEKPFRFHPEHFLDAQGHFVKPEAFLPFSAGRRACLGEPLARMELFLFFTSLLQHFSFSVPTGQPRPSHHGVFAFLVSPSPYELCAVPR
For data set [4], the target named is T4, Cytochrome P450 3A4 (Homo sapiens, UniProt P08684). The data set can be described thus: Inhibition of CYP3A4 in human liver microsomes using midazolam as substrate preincubated for 30 mins followed by substrate addition measured after 10 mins in presence of NADPH by LC-MS/MS analysis. Type of data set: ADME.
T4 sequence (P08684 whole entry): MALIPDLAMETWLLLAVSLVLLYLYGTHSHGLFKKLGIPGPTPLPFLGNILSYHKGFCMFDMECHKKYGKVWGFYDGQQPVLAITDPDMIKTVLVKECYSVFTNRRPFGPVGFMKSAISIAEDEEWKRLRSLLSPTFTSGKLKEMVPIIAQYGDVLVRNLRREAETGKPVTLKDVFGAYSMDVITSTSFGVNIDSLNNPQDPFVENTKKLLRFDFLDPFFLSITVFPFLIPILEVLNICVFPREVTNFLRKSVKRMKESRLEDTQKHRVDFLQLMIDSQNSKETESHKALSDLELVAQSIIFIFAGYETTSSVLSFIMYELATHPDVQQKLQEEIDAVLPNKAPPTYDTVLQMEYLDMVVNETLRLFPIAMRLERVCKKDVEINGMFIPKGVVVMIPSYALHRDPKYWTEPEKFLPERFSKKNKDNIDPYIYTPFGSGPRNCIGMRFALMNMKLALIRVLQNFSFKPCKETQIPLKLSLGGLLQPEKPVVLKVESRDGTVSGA
For data set [5], the target named is T4, Cytochrome P450 3A4. The data set can be described thus: Time dependent inhibition of human liver microsomes CYP3A4 using midazolam as substrate in presence of NADPH by LC-MS/MS analysis. Type of data set: ADME.
Data set [6] in a line: Blood clearance in mouse by measuring intrinsic clearance in mouse liver microsomes by MS/MS analysis. Type of data set: ADME.
Data set [7] in a line: Blood clearance in rat by measuring Intrinsic clearance in rat hepatocytes by MS/MS analysis. Type of data set: ADME, cell-based.
Data set [8] is described as follows: Apparent permeability from apical side to basolateral side in human Caco2 cells. Type of data set: ADME, cell-based. The conditions noted are these: Caco-2.
A short description of data set [9]: Efflux ratio in human Caco2 cells. Type of data set: ADME, cell-based. The settings on record: Caco-2.
In data set [10] the target is T5, Nuclear receptor subfamily 1 group I member 2 (Homo sapiens, UniProt O75469).
T5 sequence (O75469 whole entry): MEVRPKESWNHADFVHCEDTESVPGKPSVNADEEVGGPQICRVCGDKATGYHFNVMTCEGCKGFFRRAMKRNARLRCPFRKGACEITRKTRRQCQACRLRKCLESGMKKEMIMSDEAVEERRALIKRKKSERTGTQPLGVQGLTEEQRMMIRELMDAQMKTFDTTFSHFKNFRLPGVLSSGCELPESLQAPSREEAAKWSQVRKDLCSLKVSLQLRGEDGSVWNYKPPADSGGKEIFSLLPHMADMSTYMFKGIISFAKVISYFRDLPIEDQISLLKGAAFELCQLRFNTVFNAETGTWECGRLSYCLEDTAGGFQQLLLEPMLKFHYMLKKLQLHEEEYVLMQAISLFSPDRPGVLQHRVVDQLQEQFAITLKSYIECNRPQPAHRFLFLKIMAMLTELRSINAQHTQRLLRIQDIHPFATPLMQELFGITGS
The data set can be described thus: Activation of PXR in human HepG2 cells assessed as induction of CYP3A4 expression by luciferase reporter gene assay. Type of data set: ADME, cell-based.

In a further data set the target is T6, PXR (Homo sapiens, UniProt O75469).
T6 sequence (O75469 whole entry): T5 sequence (O75469 whole entry)
The data set can be described thus: Activation of PXR in human HepG2 cells assessed as induction of CYP3A4 expression at 2 x 10^-9 to 50 x 10^-6 mol/L by luciferase reporter gene assay relative to control. Type of data set: ADME, cell-based.

Data set [11] can be described thus: Plasma clearance in mouse. Type of data set: ADME, organism-based.

Where only a bound is given, the exact number is not on record here.

Cytochrome P450 2C9, sequence (P11712 whole entry): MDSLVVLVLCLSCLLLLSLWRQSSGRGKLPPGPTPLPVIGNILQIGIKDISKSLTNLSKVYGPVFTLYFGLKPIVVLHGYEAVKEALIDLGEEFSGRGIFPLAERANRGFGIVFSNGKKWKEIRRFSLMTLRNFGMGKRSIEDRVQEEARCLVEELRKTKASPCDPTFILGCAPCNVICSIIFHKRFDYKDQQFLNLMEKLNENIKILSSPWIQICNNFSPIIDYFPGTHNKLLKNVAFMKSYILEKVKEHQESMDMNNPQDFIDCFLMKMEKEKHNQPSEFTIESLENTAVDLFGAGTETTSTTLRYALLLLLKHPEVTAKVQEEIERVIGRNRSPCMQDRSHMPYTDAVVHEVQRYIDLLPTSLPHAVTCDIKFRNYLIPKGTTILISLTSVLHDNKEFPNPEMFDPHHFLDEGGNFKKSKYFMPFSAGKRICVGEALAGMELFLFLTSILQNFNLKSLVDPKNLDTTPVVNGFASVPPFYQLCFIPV

Take `Cc1csc2c1c(=O)n(CCc1ccccc1)c(=O)n2CC1CCCO1` (racemic): the half-inhibitory concentration (IC50) at Adenosine receptor A2b [1] turned out to be 0.52 µM. Besides, the concentration for a half-maximal effect (EC50) on Adenosine receptor A2b [2] was > 10 µM.

Consider `Cc1csc2c1c(=O)n(CCc1ccccc1)c(=O)n2CC1CCCO1` (stereo in doubt; 7), for which the half-inhibitory concentration (IC50) was 0.18 µM on Adenosine receptor A2b [1]; 6.5 µM at Cytochrome P450 1A2; 10 µM at Cytochrome P450 2C8; 8.3 µM at Cytochrome P450 2C9; > 20 µM on Cytochrome P450 2D6; 16 µM on Cytochrome P450 3A4 [4]. In addition, the CLhep predicted in [3] was 66.7 mL/min/kg; in [6], 81.7 mL/min/kg; in data set [7], 66.7 mL/min/kg. In addition, on Cytochrome P450 3A4 [5], the TDI entry is reported as “Not Active”. Moreover, the Papp A→B in [8] is 21 ×10⁻⁶ cm/s. The efflux ratio in data set [9] was determined as 0.69. Further, in [10], the MEC amounted to 2 ×10⁻⁶ mol/L. The maximum response (Emax) at PXR is 85%. The clearance in data set [11] is 43.3 mL/min/kg.

Values taken from ChEMBL document CHEMBL4422615, “Novel non-xanthine antagonist of the A2B adenosine receptor: From HTS hit to lead structure” (Eur J Med Chem, 2019).
